Measured values as given in PubChem BioAssay AID328 (DTP/NCI, 2004).
Where “and” joins values, the source holds several entries; their conditions need not be identical. Equal values may be shown once. Inconclusive results and toxic doses are left out.

Tested on: BDF1 mice, P388 leukemia ip, median survival T/C
Assay: NCI In Vivo Anticancer Drug Screen. Data for tumor model P388 Leukemia (intraperitoneal) in B6D2F1 (BDF1) mice
Conditions: endpoint: median survival time, higher = longer survival
Summary of the method: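 Compound-treated tumour-bearing mice were compared with vehicle-treated controls. Survival was recorded, and the value is the treated-group measurement divided by the control-group measurement (T/C).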

[1] = dose: 6.25 mg/kg/injection, schedule: Q01DX009 (ip), vehicle: saline
[2] = dose: 12.5 mg/kg/injection, schedule: Q01DX009 (ip), vehicle: saline
[3] = dose: 25.0 mg/kg/injection, schedule: Q01DX009 (ip), vehicle: saline
[4] = dose: 50.0 mg/kg/injection, schedule: Q01DX009 (ip), vehicle: saline with Tween-80
[5] = dose: 100.0 mg/kg/injection, schedule: Q01DX009 (ip), vehicle: saline with Tween-80
[6] = dose: 200.0 mg/kg/injection, schedule: Q01DX009 (ip), vehicle: saline with Tween-80

With COCn1cnc2c(F)ncnc21 the T/C (dose: 6.25 mg/kg/injection, schedule: Q01DX009 (ip), vehicle: Klucel (hydroxypropylcellulose) (HPC)) was 86 % of control, the T/C (dose: 6.25 mg/kg/injection, schedule: Q04DX003 (ip), vehicle: saline) was 95 % of control and the T/C (dose: 12.5 mg/kg/injection, schedule: Q01DX009 (ip), vehicle: Klucel (hydroxypropylcellulose) (HPC)) was 90 % of control. For the same compound, the T/C (dose: 12.5 mg/kg/injection, schedule: Q04DX003 (ip), vehicle: saline) was 109 % of control, the T/C (dose: 25.0 mg/kg/injection, schedule: Q01DX009 (ip), vehicle: Klucel (hydroxypropylcellulose) (HPC)) was 86 % of control and the T/C (dose: 25.0 mg/kg/injection, schedule: Q04DX003 (ip), vehicle: saline) was 100 % of control.
In the case of O=C(O)C(CS(=O)(=O)O)Nc1ncnc2nc[nH]c12 (configuration not stated), the T/C (dose: 100.0 mg/kg/injection, schedule: Q04DX003 (ip), vehicle: saline) is reported as 100 % of control, the T/C (dose: 200.0 mg/kg/injection, schedule: Q04DX003 (ip), vehicle: saline) is reported as 100 % of control and the T/C (dose: 400.0 mg/kg/injection, schedule: Q04DX003 (ip), vehicle: saline) is reported as 100 % of control.
In the case of CCCCOC1CC2c3ccccc3C1c1cccc[n+]12 (configuration not stated), the T/C [1] is reported as 95 % of control, the T/C [2] is reported as 109 % of control and the T/C (dose: 18.75 mg/kg/injection, schedule: Q04DX003 (ip), vehicle: saline) is reported as 100 % of control. For the same compound, the T/C [3] was 122 % of control and the T/C (dose: 37.5 mg/kg/injection, schedule: Q04DX003 (ip), vehicle: saline) was 95 % of control.
O=C(CNC(=O)n1ccnc1)N/N=C/c1ccccc1O was tested, and the T/C (dose: 50.0 mg/kg/injection, schedule: Q01DX005 (ip), vehicle: saline with Tween-80) was 102 % of control, the T/C (dose: 100.0 mg/kg/injection, schedule: Q01DX005 (ip), vehicle: saline with Tween-80) was 98 % of control and the T/C (dose: 200.0 mg/kg/injection, schedule: Q01DX005 (ip), vehicle: saline with Tween-80) was 100 % of control.
O=S1(=O)CC(N2CCCCC2)C2=C(CCN(c3ccccc3)C2)O1 (configuration not stated) was tested, and the T/C (dose: 100.0 mg/kg/injection, schedule: Q04DX002 (ip), vehicle: saline with Tween-80) was 112 % of control, the T/C (dose: 200.0 mg/kg/injection, schedule: Q04DX002 (ip), vehicle: saline with Tween-80) was 95 % of control and the T/C (dose: 400.0 mg/kg/injection, schedule: Q04DX002 (ip), vehicle: saline with Tween-80) was 98 % of control.
For COc1cccc2c1C(=N)c1c(O)c3c(c(O)c1C2=O)C[C@@](O)(C(C)=O)C[C@@H]3OC1CC(N)C(O)C(C)O1 (some centres not stated), the T/C (dose: 3.46 mg/kg/injection, schedule: Q04DX003 (ip), vehicle: saline) was 177 % of control, the T/C (dose: 5.76 mg/kg/injection, schedule: Q04DX003 (ip), vehicle: saline) was 186 % of control and the T/C (dose: 9.6 mg/kg/injection, schedule: Q04DX003 (ip), vehicle: saline) was 180 % of control.
Nc1cc(Cl)c2[nH]cnc2n1 was tested, and the T/C [1] was 114 % of control, the T/C [2] was 100 % of control and the T/C [3] was 110 % of control. The T/C (dose: 50.0 mg/kg/injection, schedule: Q01DX005 (ip), vehicle: distilled water + Tween-80) was 105 % of control, the T/C (dose: 50.0 mg/kg/injection, schedule: Q01DX009 (ip), vehicle: saline) was 115 % of control and the T/C (dose: 100.0 mg/kg/injection, schedule: Q01DX009 (ip), vehicle: saline) was 100 % of control.
With CCOC(=O)c1cc(N)c(C(=O)OCC)cc1N the T/C [4] was 99 % of control and 114 % of control, the T/C [5] was 98 % of control and 108 % of control and the T/C [6] was 106 % of control. The T/C (dose: 400.0 mg/kg/injection, schedule: Q01DX009 (ip), vehicle: saline with Tween-80) was 99 % of control.
For C/C(CC(c1ccccc1)N1CCc2ccccc2C1)=N/O (configuration not stated), the T/C (dose: 100.0 mg/kg/injection, schedule: Q04DX003 (ip), vehicle: saline sonified) was 104 % of control, the T/C (dose: 200.0 mg/kg/injection, schedule: Q04DX003 (ip), vehicle: saline sonified) was 109 % of control and the T/C (dose: 400.0 mg/kg/injection, schedule: Q04DX003 (ip), vehicle: saline sonified) was 90 % of control.
For COc1ccc(/C=C(/C#N)c2ccccc2)cc1, the T/C (dose: 25.0 mg/kg/injection, schedule: Q01DX009 (ip), vehicle: saline with Tween-80) was 93 % of control, the T/C [4] was 97 % of control and the T/C [5] was 103 % of control. For the same compound, the T/C [6] was 111 % of control.
For [I][Hg][CH2]C1OCCOC1[CH2][Hg][I] (configuration not stated), the T/C [5] was 116 % of control and the T/C [6] was 116 % of control.
